This is an account of results in US20200368234A1, “PHOTORECEPTOR GENE MODULATOR PHOTOREGULIN 3 FOR TREATMENT OF RETINAL DISEASE” (University of Washington, priority 2017, published 2020).

Data set [1] has as its target T1, Nr2e3 (Homo sapiens, UniProt Q9Y5X4).
T1 construct: Nr2e3 protein (aa 90-410) was expressed; His8 (N, cleaved yes); MBP (N, cleaved yes); host or cells: E. coli BL21 (DE3)
Briefly: Isothermal titration calorimetry (ITC) of PR3 binding to Nr2e3. The following applies: one site model, estimated. As for the experimental part:
FIG. 1F illustrates an isothermal titration calorimetric (ITC) study of PR3 binding to Nr2e3. Nr2e3 protein was expressed as a fusion protein from the expression vector pVP16. The fusion protein was incubated with TEV overnight at 4° C. and then the His8-MBP tags were separated from Nr2e3 by ion exchange chromatography. For isothermal titration calorimetry, […] was injected into […] in a MicroCal ITC-200 (Malvern).
To confirm a direct Nr2e3-PR3 interaction, isothermal titration calorimetry (ITC) was used.
Nr2e3 protein (aa 90-410) was expressed as a His8-MBP-TEV fusion protein from the expression vector pVP16 (DNASU Plasmid ID: HsCD00084154). E. coli BL21 (DE3) cells were grown to an OD600 of 1, and then induced with 0.2 mM IPTG at 16° C. overnight. Cells were harvested, resuspended in extract buffer (20 mM Tris pH 8, 200 mM NaCl, 10% glycerol, 5 mM 2-mercaptoethanol, and saturated PMSF diluted 1:1,000), and then lysed by sonication on ice. Lysates were centrifuged at 4° C. and the supernatant was loaded onto an equilibrated column containing 5 mL of Ni-NTA agarose (Qiagen). […] For isothermal titration calorimetry, 100 μM PR3 was injected into 20 μM Nr2e3 in 10 mM sodium phosphate buffer pH 8 with 50 mM NaCl and 0.5% DMSO in a MicroCal ITC-200 (Malvern) and the data was analyzed with Origin 7.0 software.

Data set [2] concerns Rho^P23H mice. Briefly: Photoreceptor degeneration in Rho^P23H mice: histology and qPCR at P21. In kind it is in vivo, mouse. As to conditions: 10 mg/kg i.p. from P12-P14 until P21, vs DMSO vehicle. The protocol: FIG. 3A illustrates the timeline of photoreceptor degeneration in the Rhodopsin^P23H mouse and experimental design.
To determine whether photoreceptor degeneration can be prevented, Rho^P23H mice were treated with PR3 or vehicle from P12-P14 until P21, during the period of rod photoreceptor death (FIG. 3A). At P21, visual function was assessed with ERGs and euthanized the mice for histological and qPCR analyses. At P21, control Rho^P23H mice had only 2-3 rows of photoreceptors remaining in their ONL (FIGS. 3B and 3C). Rods were sparse and there were few remaining cones (S Opsin+ and Cone Arrestin+ photoreceptors). Control Rho^P23H mice had minimal scotopic and photopic b-wave amplitudes by ERG analysis (FIGS. 4A, 4B, 4D, and 4E). […]
Photoregulin3 was identified by searching previous small molecule screens with SciFinder and PubChem for Nr2e3 interacting molecules. It was initially obtained from ChemDiv and then synthesized and purified in large quantities in the lab after initial screening. […]
RNA from retinas was isolated using TRIzol (Invitrogen) and cDNA was synthesized using the iScript cDNA synthesis kit (Bio-Rad). SSO Fast (Bio-Rad) was used for quantitative real-time PCR. For analysis, values were normalized to Gapdh (ΔCt) and ΔΔCt between DMSO and compound-treated samples was expressed as percent of DMSO treated controls (100*2^ΔΔCt). […]
For orientation: Real-time PCR tracks product formation cycle by cycle.

Data set [3] has as its system Rho^P23H mice. Briefly: ERG visual function in Rho^P23H mice at P21. In kind it is in vivo, mouse. The following applies: 10 mg/kg PR3, vs littermate DMSO controls. As for the experimental part: FIG. 4A compares scotopic b-wave amplitudes from P21 Rhodopsin^P23H mice treated with 10 mg/kg PR3 or DMSO vehicle (n=4-8, *p<0.05, t-test).
FIG. 4D compares photopic b-wave amplitudes from P21 Rhodopsin^P23H mice treated with 10 mg/kg PR3 or DMSO vehicle (n=4-8, *p<0.05, t-test).
To determine whether photoreceptor degeneration can be prevented, Rho^P23H mice were treated with PR3 or vehicle from P12-P14 until P21, during the period of rod photoreceptor death (FIG. 3A). At P21, visual function was assessed with ERGs and euthanized the mice for histological and qPCR analyses. At P21, control Rho^P23H mice had only 2-3 rows of photoreceptors remaining in their ONL (FIGS. 3B and 3C). Rods were sparse and there were few remaining cones (S Opsin+ and Cone Arrestin+ photoreceptors). Control Rho^P23H mice had minimal scotopic and photopic b-wave amplitudes by ERG analysis (FIGS. 4A, 4B, 4D, and 4E). […] The surviving cones in the PR3-treated retinas were more elongated and healthier than in the DMSO control retinas.
Photoregulin3 was identified by searching previous small molecule screens with SciFinder and PubChem for Nr2e3 interacting molecules. It was initially obtained from ChemDiv and then synthesized and purified in large quantities in the lab after initial screening. For in vivo experiments, mice were injected intraperitoneally with PR3 dissolved in DMSO at 10 mg/kg. […]

Entries after “also recorded” stand apart in the source; their conditions may differ.

Usually Kd stands for the free concentration of one partner at which half of the binding sites on the other are occupied at equilibrium, for simple one-to-one binding.

T1 sequence (Q9Y5X4 90-410): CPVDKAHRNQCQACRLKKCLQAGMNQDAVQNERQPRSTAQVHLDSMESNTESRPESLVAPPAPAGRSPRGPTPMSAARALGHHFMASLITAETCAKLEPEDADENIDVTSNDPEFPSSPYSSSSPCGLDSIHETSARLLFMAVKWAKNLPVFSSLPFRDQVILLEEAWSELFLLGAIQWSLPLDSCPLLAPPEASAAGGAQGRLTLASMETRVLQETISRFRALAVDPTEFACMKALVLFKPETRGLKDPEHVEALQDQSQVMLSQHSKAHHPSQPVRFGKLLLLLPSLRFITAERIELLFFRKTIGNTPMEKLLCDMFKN

For `COc1cc2nc(CN3CC=C(c4ccccc4)CC3)nc(O)c2cc1OC` [PR3], the Kd in data set [1] was roughly 67 µM. Further, in data set [2], the “expression of photoreceptor genes in whole retinas (qPCR)” value is “greater expression of photoreceptor genes Recoverin, Rhodopsin, and S Opsin; also recorded: more expression of Recoverin and Rhodopsin”; the “rows of photoreceptors (DAPI+ cells) in the ONL” value is “greater survival of photoreceptors; also recorded: several rows of rod and cone photoreceptors in the ONL”. In data set [3], the “photopic b-wave amplitudes (ERG)” value is “significantly elevated” and the “scotopic b-wave amplitudes (ERG)” value is “significantly elevated”.
